{"source": "patent US8759564B2", "about": "“Amidoacetonitrile compounds having pesticidal activity” (Novartis AG, priority 2009, dated 2014)", "key": {"Haemonchus contortus": {"test_system": "Haemonchus contortus", "test": "In-vivo test in Mongolian gerbils using peroral application", "details": "dose 0.32 mg/kg, H. contortus", "experimental": "(§1) 2. In-vivo Test on Trichostrongylus colubriformis and Haemonchus contortus in Mongolian Gerbils (Meriones unquiculatus) Using Peroral Application Six to eight week old Mongolian gerbils are infected through a stomach tube with ca. 2000 third instar larvae each of T. colubriformis and H contortus. 6 days after infection, the gerbils are treated by peroral application with the test compounds, dissolved in a mixture of 2 pasts DMSO and 1 part polyethylene glycol (PEG 400). On day 9 (3 days after treatment), when most of the H. cantortus that are still present are late 4th instar larvae and most of the T. colubriformis are immature adults, the gerbils are killed in order to count the worms. The efficacy is calculated as the % reduction of the number of worms in each gerbil, compared with the geometric average of number of worms from 6 infected and untreated gerbils."}, "[1]": {"test_system": "Trichostrongylus colubriformis", "test": "In-vivo test in Mongolian gerbils using peroral application", "details": "dose 0.32 mg/kg, T. colubriformis", "experimental": "as §1"}, "[2]": {"test_system": "Teladorsagia circumcincta", "test": "In-vivo test in sheep using peroral application", "details": "oral, worm burden in abomasum 19 to 21 days after treatment", "experimental": "3. In-Vivo Test on Teladorsagia circumcincta in Sheep Using Peroral Application Sheep are infected with 6,000 to 8,000 third stage larvae of Teladorsagia circumcincta (Tca) 7 to 5 days prior to treatment Animals in the treated groups are treated orally at a dose of 2 or 5 mg per kg bodyweight. […] The animals are euthanized 19 to 21 days after treatment and the worm burden in the abomasum is examined. Efficacy assessment of the compounds is determined by comparison of the treated and untreated groups worm counts, calculated using Abbott's formula as follows: % efficacy=100×(C−T)/C, where C is the geometric mean worm count of each species for the untreated control group and T, the geometric mean worm count of each species for the treated group."}, "Ostertagia ostertagi": {"test_system": "Ostertagia ostertagi", "test": "In-vivo test in cattle using peroral application", "details": "oral, worm burden in abomasum 23 to 28 days after treatment", "experimental": "4. In-vivo Test on Ostertagia ostertagi in Cattle Using Peroral Application Cattle are infected with 7,000 to 10,000 third stage larvae of Ostertagia ostertagi (Oo) 7 to 5 days prior to treatment. […] The animals are euthanized 23 to 28 days after treatment and the worm burden in the abomasum is examined. Efficacy assessment of the compounds is determined by comparison of the treated and untreated groups worm counts, calculated using Abbott's formula as follows: % efficacy=100×(C−T)/C; where C is the geometric mean worm count of each species for the untreated control group and T, the geometric mean worm count of each species for the treated group."}}, "data": [{"smiles": "CC(C#N)(COc1cc(C#N)ccc1Oc1ccc(OC(F)(F)F)cc1Cl)NC(=O)c1ccc(OC(F)(F)F)cc1", "note": "(racemic) [Compound No. 1.1, N-[1-cyano-1-methyl-2-(5-cyano-2-{2-chloro-4-trifluoromethoxy-phenoxy}-phenoxy)-ethyl]-4-trifluoromethoxybenzamide]", "values": [{"measurement": "efficacy (% reduction of the number of worms)", "setting": "Haemonchus contortus", "result": 100, "unit": "%"}, {"measurement": "efficacy (% reduction of the number of worms)", "setting": "[1]", "result": 100, "unit": "%"}, {"measurement": "Efficacy against Tca [%]", "setting": "[2]; dose 2 mg/kg", "result": 99, "unit": "%"}, {"measurement": "Efficacy against Oo [%]", "setting": "Ostertagia ostertagi; dose 5 mg/kg", "result": 100, "unit": "%"}]}, {"smiles": "CC(C#N)(COc1cc(C#N)ccc1Oc1ccc(OC(F)(F)F)cc1Cl)NC(=O)c1ccc(SC(F)(F)F)cc1", "note": "(racemic) [Compound No. 1.7, N-[1-cyano-1-methyl-2-(5-cyano-2-{2-chloro-4-trifluoromethoxy-phenoxy}-phenoxy)-ethyl]-4-trifluoromethylsulfanylbenzamide]", "values": [{"measurement": "efficacy (% reduction of the number of worms)", "setting": "Haemonchus contortus", "result": 100, "unit": "%"}, {"measurement": "efficacy (% reduction of the number of worms)", "setting": "[1]", "result": 100, "unit": "%"}, {"measurement": "Efficacy against Tca [%]", "setting": "[2]; dose 2 mg/kg", "result": 99, "unit": "%"}, {"measurement": "Efficacy against Oo [%]", "setting": "Ostertagia ostertagi; dose 5 mg/kg", "result": 100, "unit": "%"}, {"measurement": "melting point", "result": "136 to 137", "unit": "°C"}]}, {"smiles": "CC(C#N)(COc1cc(C#N)ccc1Oc1ccc(OC(F)(F)F)cc1Cl)NC(=O)c1ccc(S(=O)(=O)C(F)(F)F)cc1", "note": "(racemic) [Compound No. 1.12, N-[1-cyano-1-methyl-2-(5-cyano-2-{2-chloro-4-trifluoromethoxy-phenoxy}-phenoxy)-ethyl]-4-trifluoromethylsulfonylbenzamide]", "values": [{"measurement": "efficacy (% reduction of the number of worms)", "setting": "Haemonchus contortus", "result": 98, "unit": "%"}, {"measurement": "efficacy (% reduction of the number of worms)", "setting": "[1]", "result": 98, "unit": "%"}, {"measurement": "Efficacy against Tca [%]", "setting": "[2]; dose 2 mg/kg", "result": 99, "unit": "%"}, {"measurement": "Efficacy against Oo [%]", "setting": "Ostertagia ostertagi; dose 5 mg/kg", "result": 100, "unit": "%"}, {"measurement": "melting point", "result": "128 to 130", "unit": "°C"}]}, {"smiles": "C[C@@](C#N)(COc1cc(C#N)ccc1Oc1ccc(OC(F)(F)F)cc1Cl)NC(=O)c1ccc(OC(F)(F)F)cc1", "note": "[Compound No. 1.3, N-[(1R)-1-cyano-2-(5-cyano-2-{2-chloro-4-trifluoromethoxyphenoxy}-phenoxy)-1-methylethyl]-4-trifluoromehoxy-benzamide]", "values": [{"measurement": "efficacy (% reduction of the number of worms)", "setting": "Haemonchus contortus", "result": 100, "unit": "%"}, {"measurement": "efficacy (% reduction of the number of worms)", "setting": "[1]", "result": 100, "unit": "%"}]}, {"smiles": "CC(C#N)(COc1cc(Cl)ccc1Oc1ccc(Cl)cc1Cl)NC(=O)c1ccc(OC(F)(F)F)cc1", "note": "(stereo not shown) [reference compound]", "values": [{"measurement": "Efficacy against Tca [%]", "setting": "[2]; dose 5 mg/kg", "result": 15, "unit": "%"}]}, {"smiles": "CC(C#N)(COc1cc(C#N)ccc1Oc1ccc(Cl)cc1Cl)NC(=O)c1ccc(OC(F)(F)F)cc1", "note": "(stereo not shown) [reference compound]", "values": [{"measurement": "Efficacy against Tca [%]", "setting": "[2]; dose 5 mg/kg", "result": 0, "unit": "%"}, {"measurement": "Efficacy against Oo [%]", "setting": "Ostertagia ostertagi; dose 20 mg/kg", "result": 55, "unit": "%"}]}]}
